Experimental data reported in patent US8247211B2, “Glycopeptide antibiotics” (American Cyanamid Company, priority 2001, dated 2012).
≈ marks a conversion by molar mass, not a printed value. One block for each compound: values may come before it.

Experiments:
Assay in all cases: In vitro antibacterial evaluation: minimum inhibitory concentration (MIC), broth dilution method
Type in all cases: cell-based
Escherichia coli = details: for MIC Escherichia coli (ATCC 25922): strain ATCC 25922; for MIC Escherichia coli (GC 4559): strain GC 4559; for MIC Escherichia coli (GC 4560): strain GC 4560
Protocol: (§1) The minimum inhibitory concentration (MIC), the lowest concentration of the antibiotic which inhibits growth of the test organism, is determined by the broth dilution method using Muller-Hinton II […] (Baltimore Biological Laboratories) following the recommendations of the National Committee for Clinical Laboratory Standards [Methods for dilution antimicrobial susceptibility tests for bacteria that grow aerobically, approved standard M7-A2, National Committee for Clinical Laboratory Standards, Villanova, Pa].
(§2) An inoculum level of 5×10^5 CFU/mL, and a range of antibiotic concentrations (64-0.06 μg/mL) is used. […] The test organisms include a spectrum of Gram-positive bacteria comprised of Staphylococcus sp., Streptococcus sp. and Enterococcus sp. These organisms include recent clinical isolates that are resistant to methicillin, penicillin and/or vancomycin.

Enterococcus sp. = details: for MIC Enterococcus faecalis (ATCC 29212): strain ATCC 29212; for MIC Enterococcus faecium (GC 2243): strain GC 2243; for MIC Enterococcus faecalis (GC 4552): strain GC 4552; for MIC Enterococcus faecalis (GC 4553): strain GC 4553; for MIC Enterococcus faecalis (GC 4554): strain GC 4554; for MIC Enterococcus faecium (GC 4556): strain GC 4556; for MIC Enterococcus faecium (GC 4557): strain GC 4557; for MIC Enterococcus avium (GC 4558): strain GC 4558; for MIC Enterococcus faecalis (GC 6189): strain GC 6189
Protocol: as §1, §2

Staphylococcus sp. = details: for MIC Staphylococcus aureus (ATCC 29213) / MIC Staphylococcus aureus (GC 1131) / MIC Staphylococcus aureus (GC 3051) / MIC Staphylococcus aureus (GC 3053) / MIC Staphylococcus aureus (GC 4541) / MIC Staphylococcus aureus (GC 4542) / MIC Staphylococcus aureus (GC 4544) / MIC Staphylococcus aureus (GC 4545) / MIC Staphylococcus aureus-SMITH (GC 4543): 18 hours at 35° C.
Protocol: as §1, §2

Streptococcus sp. = tested on: Streptococcus sp.
Protocol: as §1, §2

[1] = Enterococcus faecalis (GC 2242), broth dilution, 18 hours at 35° C.
[2] = Enterococcus faecalis (GC 2691), broth dilution, 18 hours at 35° C.
[3] = Enterococcus faecalis (GC 3059), broth dilution, 18 hours at 35° C.
[4] = strain SMITH GC 4543, broth dilution
[5] = Streptococcus agalactiae (GC 4564), broth dilution, 18 hours at 35° C.
[6] = Streptococcus pneumoniae (ATCC 6301), broth dilution, 18 hours at 35° C.
[7] = Streptococcus pneumoniae (GC 1894), broth dilution, 18 hours at 35° C.
[8] = Streptococcus pneumoniae (GC 4565), broth dilution, 18 hours at 35° C.
[9] = Streptococcus pyogenes (GC 4563), broth dilution, 18 hours at 35° C.

- MIC Escherichia coli (ATCC 25922) (Escherichia coli): >64 µg/mL
- MIC Escherichia coli (GC 4559) (Escherichia coli): 64 µg/mL (≈ 42.3 µM)
- MIC Escherichia coli (GC 4560) (Escherichia coli): 4 µg/mL (≈ 2.65 µM)
- MIC Enterococcus faecalis (GC 2242) (Enterococcus sp.; [1]): 8 µg/mL (≈ 5.29 µM)
- MIC Enterococcus faecalis (GC 2691) (Enterococcus sp.; [2]): 8 µg/mL (≈ 5.29 µM)
- MIC Enterococcus faecalis (GC 3059) (Enterococcus sp.; [3]): 8 µg/mL (≈ 5.29 µM)
- MIC Enterococcus faecalis (ATCC 29212) (Enterococcus sp.): 8 µg/mL (≈ 5.29 µM)
- MIC Enterococcus faecalis (GC 2242) (Enterococcus sp.; strain GC 2242): 8 µg/mL (≈ 5.29 µM)
- MIC Enterococcus faecium (GC 2243) (Enterococcus sp.): 4 µg/mL (≈ 2.65 µM)
- MIC Enterococcus faecalis (GC 2691) (Enterococcus sp.; strain GC 2691): 8 µg/mL (≈ 5.29 µM)
- MIC Enterococcus faecalis (GC 3059) (Enterococcus sp.; strain GC 3059): 8 µg/mL (≈ 5.29 µM)
- MIC Enterococcus faecalis (GC 4552) (Enterococcus sp.): 8 µg/mL (≈ 5.29 µM)
- MIC Enterococcus faecalis (GC 4553) (Enterococcus sp.): 8 µg/mL (≈ 5.29 µM)
- MIC Enterococcus faecalis (GC 4554) (Enterococcus sp.): 16 µg/mL (≈ 10.6 µM)
- MIC Enterococcus faecium (GC 4556) (Enterococcus sp.): 8 µg/mL (≈ 5.29 µM)
- MIC Enterococcus faecium (GC 4557) (Enterococcus sp.): 1 µg/mL (≈ 0.662 µM)
- MIC Enterococcus avium (GC 4558) (Enterococcus sp.): 8 µg/mL (≈ 5.29 µM)
- MIC Enterococcus faecalis (GC 6189) (Enterococcus sp.): 8 µg/mL (≈ 5.29 µM)
- MIC Staphylococcus aureus (ATCC 29213) (Staphylococcus sp.; broth dilution): 8 µg/mL (≈ 5.29 µM)
- MIC Staphylococcus aureus (GC 1131) (Staphylococcus sp.; broth dilution): 8 µg/mL (≈ 5.29 µM)
- MIC Staphylococcus aureus (GC 3051) (Staphylococcus sp.; broth dilution): 8 µg/mL (≈ 5.29 µM)
- MIC Staphylococcus aureus (GC 3053) (Staphylococcus sp.; broth dilution): 8 µg/mL (≈ 5.29 µM)
- MIC Staphylococcus aureus (GC 4541) (Staphylococcus sp.; broth dilution): 4 µg/mL (≈ 2.65 µM)
- MIC Staphylococcus aureus (GC 4542) (Staphylococcus sp.; broth dilution): 8 µg/mL (≈ 5.29 µM)
- MIC Staphylococcus aureus (GC 4544) (Staphylococcus sp.; broth dilution): 8 µg/mL (≈ 5.29 µM)
- MIC Staphylococcus aureus (GC 4545) (Staphylococcus sp.; broth dilution): 8 µg/mL (≈ 5.29 µM)
- MIC Staphylococcus aureus-SMITH (GC 4543) (Staphylococcus sp.; [4]): 4 µg/mL (≈ 2.65 µM)
- MIC Streptococcus agalactiae (GC 4564) (Streptococcus sp.; [5]): 1 µg/mL (≈ 0.662 µM)
- MIC Streptococcus pneumoniae (ATCC 6301) (Streptococcus sp.; [6]): 1 µg/mL (≈ 0.662 µM)
- MIC Streptococcus pneumoniae (GC 1894) (Streptococcus sp.; [7]): 0.12 µg/mL (≈ 0.0794 µM)
- MIC Streptococcus pneumoniae (GC 4565) (Streptococcus sp.; [8]): 1 µg/mL (≈ 0.662 µM)
- MIC Streptococcus pyogenes (GC 4563) (Streptococcus sp.; [9]): 0.5 µg/mL (≈ 0.331 µM)
- MIC Streptococcus pneumoniae (ATCC 6301) (Streptococcus sp.; strain ATCC 6301): 1 µg/mL (≈ 0.662 µM)
- MIC Streptococcus pneumoniae (GC 1894) (Streptococcus sp.; strain GC 1894): 0.12 µg/mL (≈ 0.0794 µM)
- MIC Streptococcus pyogenes (GC 4563) (Streptococcus sp.; strain GC 4563): 0.5 µg/mL (≈ 0.331 µM)
- MIC Streptococcus agalactiae (GC 4564) (Streptococcus sp.; strain GC 4564): 1 µg/mL (≈ 0.662 µM)
- MIC Streptococcus pneumoniae (GC 4565) (Streptococcus sp.; strain GC 4565): 1 µg/mL (≈ 0.662 µM)
SMILES: CCCCCCN=C1NCC(C(O)C2NC(=O)C(C(O)C3CNC(=N)N3)NC(=O)C(Cc3ccc(OC4OC(CO)C(OC5OC6COC7(OC6C(O)C5O)C5CC6CC(C5)CC7C6)C(O)C4O)cc3)NC(=O)C(C(C)c3ccccc3)NC(=O)CNC(=O)C(CO)NC2=O)N1C1OC(CO)C(O)C(O)C1O (centres unmarked) [Example 84]

- MIC Escherichia coli (ATCC 25922) (Escherichia coli): >64 µg/mL
- MIC Escherichia coli (GC 4559) (Escherichia coli): >64 µg/mL
- MIC Escherichia coli (GC 4560) (Escherichia coli): 64 µg/mL (≈ 41 µM)
- MIC Enterococcus faecalis (GC 2242) (Enterococcus sp.; [1]): >64 µg/mL
- MIC Enterococcus faecalis (GC 2691) (Enterococcus sp.; [2]): >64 µg/mL
- MIC Enterococcus faecalis (GC 3059) (Enterococcus sp.; [3]): >64 µg/mL
- MIC Enterococcus faecalis (ATCC 29212) (Enterococcus sp.): >64 µg/mL
- MIC Enterococcus faecalis (GC 2242) (Enterococcus sp.; strain GC 2242): >64 µg/mL
- MIC Enterococcus faecium (GC 2243) (Enterococcus sp.): >64 µg/mL
- MIC Enterococcus faecalis (GC 2691) (Enterococcus sp.; strain GC 2691): >64 µg/mL
- MIC Enterococcus faecalis (GC 3059) (Enterococcus sp.; strain GC 3059): >64 µg/mL
- MIC Enterococcus faecalis (GC 4552) (Enterococcus sp.): >64 µg/mL
- MIC Enterococcus faecalis (GC 4553) (Enterococcus sp.): >64 µg/mL
- MIC Enterococcus faecalis (GC 4554) (Enterococcus sp.): >64 µg/mL
- MIC Enterococcus faecium (GC 4556) (Enterococcus sp.): >64 µg/mL
- MIC Enterococcus faecium (GC 4557) (Enterococcus sp.): >64 µg/mL
- MIC Enterococcus avium (GC 4558) (Enterococcus sp.): >64 µg/mL
- MIC Enterococcus faecalis (GC 6189) (Enterococcus sp.): >64 µg/mL
- MIC Staphylococcus aureus (ATCC 29213) (Staphylococcus sp.; broth dilution): >64 µg/mL
- MIC Staphylococcus aureus (GC 1131) (Staphylococcus sp.; broth dilution): >64 µg/mL
- MIC Staphylococcus aureus (GC 3051) (Staphylococcus sp.; broth dilution): >64 µg/mL
- MIC Staphylococcus aureus (GC 3053) (Staphylococcus sp.; broth dilution): >64 µg/mL
- MIC Staphylococcus aureus (GC 4541) (Staphylococcus sp.; broth dilution): >64 µg/mL
- MIC Staphylococcus aureus (GC 4542) (Staphylococcus sp.; broth dilution): >64 µg/mL
- MIC Staphylococcus aureus (GC 4544) (Staphylococcus sp.; broth dilution): >64 µg/mL
- MIC Staphylococcus aureus (GC 4545) (Staphylococcus sp.; broth dilution): >64 µg/mL
- MIC Staphylococcus aureus-SMITH (GC 4543) (Staphylococcus sp.; strain GC 4543): >64 µg/mL
- MIC Coagulase Negative Staphylococcus (GC 4547) (Staphylococcus sp.; strain GC 4547): >64 µg/mL
- MIC Coagulase Negative Staphylococcus (GC 4548) (Staphylococcus sp.; strain GC 4548): >64 µg/mL
- MIC Coagulase Negative Staphylococcus (GC 4549) (Staphylococcus sp.; strain GC 4549): >64 µg/mL
- MIC Coagulase Negative Staphylococcus (GC 4551) (Staphylococcus sp.; strain GC 4551): >64 µg/mL
- MIC Staphylococcus aureus-SMITH (GC 4543) (Staphylococcus sp.; [4]): >64 µg/mL
- MIC Streptococcus agalactiae (GC 4564) (Streptococcus sp.; [5]): >64 µg/mL
- MIC Streptococcus pneumoniae (ATCC 6301) (Streptococcus sp.; [6]): >64 µg/mL
- MIC Streptococcus pneumoniae (GC 1894) (Streptococcus sp.; [7]): >64 µg/mL
- MIC Streptococcus pneumoniae (GC 4565) (Streptococcus sp.; [8]): >64 µg/mL
- MIC Streptococcus pyogenes (GC 4563) (Streptococcus sp.; [9]): >64 µg/mL
- MIC Streptococcus pneumoniae (ATCC 6301) (Streptococcus sp.; strain ATCC 6301): >64 µg/mL
- MIC Streptococcus pneumoniae (GC 1894) (Streptococcus sp.; strain GC 1894): >64 µg/mL
- MIC Streptococcus pyogenes (GC 4563) (Streptococcus sp.; strain GC 4563): >64 µg/mL
- MIC Streptococcus agalactiae (GC 4564) (Streptococcus sp.; strain GC 4564): >64 µg/mL
- MIC Streptococcus pneumoniae (GC 4565) (Streptococcus sp.; strain GC 4565): >64 µg/mL
SMILES: CC(c1ccccc1)C1NC(=O)CNC(=O)C(CO)NC(=O)C(C(O)C2CN(c3nc4ccccc4s3)C(=N)N2C2OC(CO)C(O)C(O)C2O)NC(=O)C(C(O)C2CNC(=Nc3nc4ccccc4s3)N2)NC(=O)C(Cc2ccc(OC3OC(CO)C(OC4OC(CO)C(O)C(O)C4O)C(O)C3O)cc2)NC1=O (stereo not drawn) [Example 94, Cyclo[glycyl-β-methylphenylalanyl-O-(4-O-hexopyranosylhexopyranosyl)tyrosyl-3-[2-(1,3-benzothiazol-2-ylimino)imidazolidin-4-yl]seryl-3-[1-(1,3-benzo-thiazol-2-yl)-2-imino-3-hexonyranosylimidazolidin-4-yl]serylseryl]]
- MIC Staphylococcus haemolyticus (GC 4546) (Staphylococcus sp.; strain GC 4546): >64 µg/mL
